Data: US11505547B2, “Compounds” (STEP PHARMA S.A.S., priority 2017, dated 2022)

molecular target: T1, human CTPS1 (Homo sapiens, UniProt P17812); test: Human CTPS1 enzyme inhibition, ADP-Glo Max assay; format: biochemical; conditions: human full length CTPS1, read-out: CTPS1 (Human CTPS1 Enzyme Inhibition data grouped by potency range, IC50)
T1 construct: purchased Proteros biostructures GmbH
T1 sequence (P17812 1-591): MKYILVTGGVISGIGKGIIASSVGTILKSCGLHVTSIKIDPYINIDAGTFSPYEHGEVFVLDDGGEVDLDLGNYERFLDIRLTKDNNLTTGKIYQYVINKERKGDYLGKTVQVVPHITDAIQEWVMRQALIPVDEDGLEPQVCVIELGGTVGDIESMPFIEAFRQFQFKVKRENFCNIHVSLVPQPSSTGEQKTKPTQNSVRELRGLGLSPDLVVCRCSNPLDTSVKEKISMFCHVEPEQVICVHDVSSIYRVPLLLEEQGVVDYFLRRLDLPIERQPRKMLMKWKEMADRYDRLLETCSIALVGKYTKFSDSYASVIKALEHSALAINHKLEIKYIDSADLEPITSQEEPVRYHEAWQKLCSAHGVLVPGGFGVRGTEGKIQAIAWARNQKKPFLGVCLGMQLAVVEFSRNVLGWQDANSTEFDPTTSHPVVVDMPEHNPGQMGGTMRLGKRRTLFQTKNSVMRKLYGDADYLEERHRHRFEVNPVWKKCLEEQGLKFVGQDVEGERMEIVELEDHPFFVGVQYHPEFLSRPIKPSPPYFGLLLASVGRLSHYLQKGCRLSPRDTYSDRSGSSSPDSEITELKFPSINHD
Procedure: Biological Example 1—Human CTPS1 Enzyme Inhibition
The enzyme inhibitory activities of compounds invented against the target of interest were determined using the ADP-Glo™ Max assay (Promega, UK). Assays for human CTPS1 were performed in 1× assay buffer containing 50 mM Tris, 10 mM MgCl2, 0.01% Tween-20, pH to 8.0 accordingly. Finally, immediately before use, L-cysteine was added to the 1× assay buffer to a final concentration of 2 mM. All reagents are from Sigma-Aldrich unless specified otherwise. Human full length active C-terminal FLAG-Hiss-tag CTPS1 (UniProtKB-P17812, CTPS[1-591]-[…]) was obtained from Proteros biostructures GmbH.
3× human CTPS1 protein was prepared in 1× assay buffer to the final working protein concentration required for the reaction. A 2 uL volume per well of 3× human CTPS1 protein was mixed with 2 uL per well of 3× test compound (compound prepared in 1× assay buffer to an appropriate final 3× compound concentration respective to the concentration response curve designed for the compounds under test) for 10 minutes at 25° C. The enzymatic reaction was then initiated by addition of a 2 uL per well volume of a pre-mixed substrate mix (UltraPure ATP from ADP-Glo™ Max kit (0.31 mM), GTP (0.034 mM), UTP (0.48 mM) and L-glutamine (0.186 mM)) and the mixture was incubated for an appropriate amount of time within the determined linear phase of the reaction at 25° C. under sealed plate conditions with constant agitation at 500 revolutions per minute (rpm). ADP-GIo™ Max reagent was added for 60 minutes (6 uL per well) and subsequently ADP-Glo™ Max development reagent was added for 60 minutes (12 uL per well) prior to signal detection in a microplate reader (EnVision® Multilabel Reader, Perkin Elmer). Following each reagent addition over the course of the assay, assay plates were pulse centrifuged for 30 seconds at 500 rpm.
In all cases, the enzyme converts ATP to ADP and the ADP-Glo™ Max reagent subsequently depletes any remaining endogenous ATP in the reaction system. The ADP-Glo™ Max detection reagent converts the ADP that has been enzymatically produced back into ATP and using ATP as a substrate together with luciferin for the enzyme luciferase, light is generated which produces a detectable luminescence. […] The percentage inhibition produced by each concentration of compound was calculated using the equation shown below: […]
Percentage inhibition was then plotted against compound concentration, and the 50% inhibitory concentration (IC50) was determined from the resultant concentration-response curve.

`CCC(CC)(NC(=O)c1ccc(-c2cncc(F)c2)cc1)c1csc(NS(=O)(=O)C2CC2)n1` [Example R16, N-(3-(2-(cyclopropanesulfonamido)thiazol-4-yl)pentan-3-yl)-4-(5-fluoropyridin-3-yl)benzamide] and `CCC(CC)(NC(=O)c1ccc(-c2cncc(C)c2)cc1)c1csc(NS(=O)(=O)C2CC2)n1` [Example R17, N-(3-(2-(cyclopropanesulfonamido)thiazol-4-yl)pentan-3-yl)-4-(5-methylpyridin-3-yl)benzamide] fall in the same range of IC50: 100 to 1000 nM for the first, 100 to 1000 nM for the second.

`CCC(CC)(NC(=O)c1ccc(-c2cccnc2)cc1)c1csc(NS(=O)(=O)C2CC2)n1` [Example R18, N-(3-(2-(cyclopropanesulfonamido)thiazol-4-yl)pentan-3-yl)-4-(pyridin-3-yl)benzamide] and `CC(C)(NC(=O)c1ccc(-c2cccnc2)cc1)c1csc(NS(=O)(=O)C2CC2)n1` [Example R39, N-(2-(2-(cyclopropanesulfonamido)thiazol-4-yl)propan-2-yl)-4-(pyridin-3-yl)benzamide] fall in the same range of IC50: 100 to 1000 nM for the first, 100 to 1000 nM for the second.

`CCC(CC)(NC(=O)c1ccc(-c2cncc(C(F)(F)F)n2)cc1)c1csc(NS(=O)(=O)C2CC2)n1` [Example R19, N-(3-(2-(cyclopropanesulfonamido)thiazol-4-yl)pentan-3-yl)-4-(6-(trifluoromethyl)pyrazin-2-yl)benzamide] and `CCC(CC)(NC(=O)c1ccc(-c2cncc(Cl)n2)cc1)c1csc(NS(=O)(=O)C2CC2)n1` [Example R20, 4-(6-chloropyrazin-2-yl)-N-(3-(2-(cyclopropanesulfonamido)thiazol-4-yl)pentan-3-yl)benzamide] cannot be ordered by IC50: < 100 nM for the first, < 100 nM for the second.

First: CCC(CC)(NC(=O)c1ccc(-c2cncc(C)n2)cc1)c1csc(NS(=O)(=O)C2CC2)n1 [Example R21, N-(3-(2-(cyclopropanesulfonamido)thiazol-4-yl)pentan-3-yl)-4-(6-methylpyrazin-2-yl)benzamide]
Second: CCC(CC)(NC(=O)c1ccc(-c2cnccn2)cc1)c1csc(NS(=O)(=O)C2CC2)n1 [Example R22, N-(3-(2-(cyclopropanesulfonamido)thiazol-4-yl)pentan-3-yl)-4-(pyrazin-2-yl)benzamide]
The IC50 of the first is lower: < 100 nM for the first, 100 to 1000 nM for the second.

`CCOc1cncc(-c2cnc(C(=O)NC(C)(C)c3csc(NS(=O)(=O)C4CC4)n3)c(F)c2)n1` [Example R23, N-(2-(2-(cyclopropanesuIfonamido)thiazol-4-yl)propan-2-yl)-5-(6-ethoxypyrazin-2-yl)-3-fluoropicolinamide] and `CCOc1cncc(-c2ccc(C(=O)NC(C)(C)c3csc(NS(=O)(=O)C4CC4)n3)nc2)n1` [Example R26, N-(2-(2-(cyclopropanesulfonamido)thiazol-4-yl)propan-2-yl)-5-(6-ethoxypyrazin-2-yl)picolinamide] fall in the same range of IC50: 100 to 1000 nM for the first, 100 to 1000 nM for the second.

`CC(C)(NC(=O)c1ccc(-c2cncc(C(F)(F)F)n2)cn1)c1csc(NS(=O)(=O)C2CC2)n1` [Example R24, N-(2-(2-(cyclopropanesulfonamido)thiazol-4-yl)propan-2-yl)-5-(6-(trifluoromethyl)pyrazin-2-yl)picolinamide] and `CC(C)(NC(=O)c1ccc(-c2cncc(Cl)n2)cn1)c1csc(NS(=O)(=O)C2CC2)n1` [Example R25, 5-(6-chloropyrazin-2-yl)-N-(2-(2-(cyclopropanesulfonamido)thiazol-4-yl)propan-2-yl)picolinamide] fall in the same range of IC50: 100 to 1000 nM for the first, 100 to 1000 nM for the second.

First: CC(C)(NC(=O)c1ccc(-c2ccccn2)nc1)c1csc(NS(=O)(=O)C2CC2)n1 [Example R27, N-(2-(2-(cyclopropanesuIfonamido)thiazol-4-yl)propan-2-yl)-[2,2′-bipyridine]-5-carboxamide]
Second: Cc1ncccc1-c1ccc(C(=O)NC(C)(C)c2csc(NS(=O)(=O)C3CC3)n2)cc1 [Example R33]
The IC50 of the first is higher: 10000 to 21000 nM for the first, 1000 to 10000 nM for the second.

First: CC(C)(NC(=O)c1ccc(-c2cncc(Cl)c2)cc1)c1csc(NS(=O)(=O)C2CC2)n1 [Example R28]
Second: CC(C)(NC(=O)c1ccc(-c2cncc(F)c2)cc1)c1csc(NS(=O)(=O)C2CC2)n1 [Example R36, N-(2-(2-(cyclopropanesulfonamido)thiazol-4-yl)propan-2-yl)-4-(5-fluoropyridin-3-yl)benzamide]
The IC50 of the first is lower: < 100 nM for the first, 100 to 1000 nM for the second. The first is the more potent here.

First: CC(C)(NC(=O)c1ccc(-c2cncc(C(F)(F)F)c2)cc1F)c1csc(NS(=O)(=O)C2CC2)n1 [Example R29]
Second: COc1cc(-c2cncc(C(F)(F)F)c2)ccc1C(=O)NC(C)(C)c1csc(NS(=O)(=O)C2CC2)n1 [Example R32]
The IC50 of the first is lower: < 100 nM for the first, 100 to 1000 nM for the second. The first is the more potent here.

`CC(C)(NC(=O)c1ccc(-c2cncc(Cl)c2)cc1F)c1csc(NS(=O)(=O)C2CC2)n1` [Example R30] and `CC(C)(NC(=O)c1ccc(-c2cncc(F)c2)cc1F)c1csc(NS(=O)(=O)C2CC2)n1` [Example R31] fall in the same range of IC50: 100 to 1000 nM for the first, 100 to 1000 nM for the second.

First: CC(=O)c1cncc(-c2ccc(C(=O)NC(C)(C)c3csc(NS(=O)(=O)C4CC4)n3)cc2)c1 [Example R34]
Second: Cc1cncc(-c2ccc(C(=O)NC(C)(C)c3csc(NS(=O)(=O)C4CC4)n3)cc2)c1 [Example R37, N-(2-(2-(cyclopropanesulfonamido)thiazol-4-yl)propan-2-yl)-4-(5-methylpyridin-3-yl)benzamide]
The IC50 of the first is higher: 1000 to 10000 nM for the first, < 100 nM for the second. The second is the more potent here.

Compared with `CC(C)(NC(=O)c1ccc(-c2cncc(C(F)(F)F)c2)cc1)c1csc(NS(=O)(=O)C2CC2)n1` [Example R35, N-(2-(2-(cyclopropanesulfonamido)thiazol-4-yl)propan-2-yl)-4-(5-(trifluoromethyl)pyridin-3-yl)benzamide], `CC(C)(NC(=O)c1ccc(-c2cccc(C(F)(F)F)c2)cc1)c1csc(NS(=O)(=O)C2CC2)n1` [Example R40, N-(2-(2-(cyclopropanesulfonamido)thiazol-4-yl)propan-2-yl)-3′-(trifluoromethyl)-[1,1′-biphenyl]-4-carboxamide] is higher in IC50: < 100 nM for the first, 100 to 1000 nM for the second. The first is the more potent here.

`COc1cncc(-c2ccc(C(=O)NC(C)(C)c3csc(NS(=O)(=O)C4CC4)n3)cc2)c1` [Example R38, N-(2-(2-(cyclopropanesuIfonamido)thiazol-4-yl)propan-2-yl)-4-(5-methoxypyridin-3-yl)benzamide] and `CCc1cncc(-c2ccc(C(=O)NC(C)(C)c3csc(NS(=O)(=O)C4CC4)n3)c(F)c2)n1` [Example R41, N-(2-(2-(cyclopropanesuIfonamido)thiazol-4-yl)propan-2-yl)-4-(6-ethylpyrazin-2-yl)-2-fluorobenzamide] fall in the same range of IC50: 100 to 1000 nM for the first, 100 to 1000 nM for the second.

First: CC(C)(NC(=O)c1ccc(-c2cncc(C(F)(F)F)n2)cc1F)c1csc(NS(=O)(=O)C2CC2)n1 [Example R42, N-(2-(2-(cyclopropanesuIfonamido)thiazol-4-yl)propan-2-yl)-2-fluoro-4-(6-(trifluoromethyl)pyrazin-2-yl)benzamide]
Second: CC(C)(NC(=O)c1ccc(-c2cncc(OCC(F)(F)F)n2)cc1F)c1csc(NS(=O)(=O)C2CC2)n1 [Example R44, N-(2-(2-(cyclopropanesuIfonamido)thiazol-4-yl)propan-2-yl)-2-fluoro-4-(6-(2,2,2-trifluoroethoxy)pyrazin-2-yl)benzamide]
The IC50 of the first is lower: < 100 nM for the first, 100 to 1000 nM for the second. The first is the more potent here.

`CC(C)Oc1cncc(-c2ccc(C(=O)NC(C)(C)c3csc(NS(=O)(=O)C4CC4)n3)c(F)c2)n1` [Example R43, N-(2-(2-(cyclopropanesulfonamido)thiazol-4-yl)propan-2-yl)-2-fluoro-4-(6-isopropoxypyrazin-2-yl)benzamide] was tested, and the IC50 was < 100 nM.
